Assay results taken from the supplement of paper PMC10307832.

Columns and labels:
Experiment in all cases: relative viability (nuclei count vs DMSO), 5 days (fraction); higher = more cells survive
KIN001-266 = compound: CCN1CCC(CC1)N2C=C(N=N2)CNC3=CC4=C(C(=CN=C4C(=C3)Cl)C#N)NC5=CC(=C(C=C5)F)Cl [KIN001-266]
Procedure, shortened: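 Viability here means nuclei in treated wells divided by nuclei in vehicle wells, reported as the median across plates. Only plates with control CV below 25% and at least one doubling passed. Lung cancer cell lines in 1536-well plates were exposed to five √10-spaced library-drug doses for 5 days and counted from 4× Hoechst images in MetaXpress.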

KIN001-266 + Bortezomib = compound: CCN1CCC(CC1)N2C=C(N=N2)CNC3=CC4=C(C(=CN=C4C(=C3)Cl)C#N)NC5=CC(=C(C=C5)F)Cl [KIN001-266] + CC(C)C[C@H](NC(=O)[C@H](Cc1ccccc1)NC(=O)c1cnccn1)B(O)O [Bortezomib] (partner 0.002 µM)
Procedure, shortened: (§1)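 Lung cancer cell lines in 1536-well plates got either a single drug or a fixed anchor-drug dose together with five library-drug doses (not always all listed) in √10 steps, by pin tool, on the day after seeding. Nuclei were counted after 5 days, and relative viability is the treated-to-vehicle ratio of nuclei counts. Values are medians of duplicate plates.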

KIN001-266 + Navitoclax = compound: CCN1CCC(CC1)N2C=C(N=N2)CNC3=CC4=C(C(=CN=C4C(=C3)Cl)C#N)NC5=CC(=C(C=C5)F)Cl [KIN001-266] + CC1(C)CCC(c2ccc(Cl)cc2)=C(CN2CCN(c3ccc(C(=O)NS(=O)(=O)c4ccc(N[C@H](CCN5CCOCC5)CSc5ccccc5)c(S(=O)(=O)C(F)(F)F)c4)cc3)CC2)C1 [Navitoclax] (partner 0.5 µM)
Procedure, shortened: as §1

KIN001-266 + Foretinib = compound: CCN1CCC(CC1)N2C=C(N=N2)CNC3=CC4=C(C(=CN=C4C(=C3)Cl)C#N)NC5=CC(=C(C=C5)F)Cl [KIN001-266] + COc1cc2c(Oc3ccc(NC(=O)C4(C(=O)Nc5ccc(F)cc5)CC4)cc3F)ccnc2cc1OCCCN1CCOCC1 [Foretinib] (partner 0.25 µM)
Procedure, shortened: as §1

KIN001-266 + Lapatinib = compound: CCN1CCC(CC1)N2C=C(N=N2)CNC3=CC4=C(C(=CN=C4C(=C3)Cl)C#N)NC5=CC(=C(C=C5)F)Cl [KIN001-266] + CS(=O)(=O)CCNCc1ccc(-c2ccc3ncnc(Nc4ccc(OCc5cccc(F)c5)c(Cl)c4)c3c2)o1 [Lapatinib] (partner 2 µM)
Procedure, shortened: as §1

KIN001-266 + Pictilisib = compound: CCN1CCC(CC1)N2C=C(N=N2)CNC3=CC4=C(C(=CN=C4C(=C3)Cl)C#N)NC5=CC(=C(C=C5)F)Cl [KIN001-266] + CS(=O)(=O)N1CCN(Cc2cc3nc(-c4cccc5[nH]ncc45)nc(N4CCOCC4)c3s2)CC1 [Pictilisib] (partner 1 µM)
Procedure, shortened: as §1

KIN001-266 + Crizotinib = compound: CCN1CCC(CC1)N2C=C(N=N2)CNC3=CC4=C(C(=CN=C4C(=C3)Cl)C#N)NC5=CC(=C(C=C5)F)Cl [KIN001-266] + C[C@@H](Oc1cc(-c2cnn(C3CCNCC3)c2)cnc1N)c1c(Cl)ccc(F)c1Cl [Crizotinib] (partner 1 µM)
Procedure, shortened: as §1

KIN001-266 + Linsitinib = compound: CCN1CCC(CC1)N2C=C(N=N2)CNC3=CC4=C(C(=CN=C4C(=C3)Cl)C#N)NC5=CC(=C(C=C5)F)Cl [KIN001-266] + C[C@]1(O)C[C@@H](c2nc(-c3ccc4ccc(-c5ccccc5)nc4c3)c3c(N)nccn32)C1 [Linsitinib] (partner 1 µM)
Procedure, shortened: as §1

KIN001-266 + Alpelisib = compound: CCN1CCC(CC1)N2C=C(N=N2)CNC3=CC4=C(C(=CN=C4C(=C3)Cl)C#N)NC5=CC(=C(C=C5)F)Cl [KIN001-266] + Cc1nc(NC(=O)N2CCC[C@H]2C(N)=O)sc1-c1ccnc(C(C)(C)C(F)(F)F)c1 [Alpelisib] (partner 2 µM)
Procedure, shortened: as §1

KIN001-266 + Vorinostat = compound: CCN1CCC(CC1)N2C=C(N=N2)CNC3=CC4=C(C(=CN=C4C(=C3)Cl)C#N)NC5=CC(=C(C=C5)F)Cl [KIN001-266] + O=C(CCCCCCC(=O)Nc1ccccc1)NO [Vorinostat] (partner 1 µM)
Procedure, shortened: as §1

KIN001-266 + Olaparib = compound: CCN1CCC(CC1)N2C=C(N=N2)CNC3=CC4=C(C(=CN=C4C(=C3)Cl)C#N)NC5=CC(=C(C=C5)F)Cl [KIN001-266] + O=C(c1cc(Cc2n[nH]c(=O)c3ccccc23)ccc1F)N1CCN(C(=O)C2CC2)CC1 [Olaparib] (partner 8 µM)
Procedure, shortened: as §1

IA-LM
relative viability (KIN001-266; 0.08 µM): 0.95
relative viability (KIN001-266; 0.253 µM): 0.956
relative viability (KIN001-266; 0.8 µM): 0.888
relative viability (KIN001-266; 2.53 µM): 1
relative viability (KIN001-266; 8 µM): 0.931
relative viability (KIN001-266 + Bortezomib; first compound 0.08 µM): 0.838
relative viability (KIN001-266 + Bortezomib; first compound 0.253 µM): 0.729
relative viability (KIN001-266 + Bortezomib; first compound 0.8 µM): 0.94
relative viability (KIN001-266 + Bortezomib; first compound 2.53 µM): 0.736
relative viability (KIN001-266 + Bortezomib; first compound 8 µM): 0.674
relative viability (KIN001-266 + Navitoclax; first compound 0.08 µM): 0.948
relative viability (KIN001-266 + Navitoclax; first compound 0.253 µM): 0.619
relative viability (KIN001-266 + Navitoclax; first compound 0.8 µM): 0.731
relative viability (KIN001-266 + Navitoclax; first compound 2.53 µM): 0.935
relative viability (KIN001-266 + Navitoclax; first compound 8 µM): 0.561
relative viability (KIN001-266 + Foretinib; first compound 0.08 µM): 1.03
relative viability (KIN001-266 + Foretinib; first compound 0.253 µM): 1.17
relative viability (KIN001-266 + Foretinib; first compound 0.8 µM): 1.41
relative viability (KIN001-266 + Foretinib; first compound 2.53 µM): 1.19
relative viability (KIN001-266 + Foretinib; first compound 8 µM): 0.891
relative viability (KIN001-266 + Lapatinib; first compound 0.08 µM): 0.967
relative viability (KIN001-266 + Lapatinib; first compound 0.253 µM): 0.752
relative viability (KIN001-266 + Lapatinib; first compound 0.8 µM): 0.989
relative viability (KIN001-266 + Lapatinib; first compound 2.53 µM): 0.861
relative viability (KIN001-266 + Lapatinib; first compound 8 µM): 0.474
relative viability (KIN001-266 + Pictilisib; first compound 0.08 µM): 0.336
relative viability (KIN001-266 + Pictilisib; first compound 0.253 µM): 0.364
relative viability (KIN001-266 + Pictilisib; first compound 0.8 µM): 0.274
relative viability (KIN001-266 + Pictilisib; first compound 2.53 µM): 0.348
relative viability (KIN001-266 + Pictilisib; first compound 8 µM): 0.317
relative viability (KIN001-266 + Crizotinib; first compound 0.08 µM): 0.885
relative viability (KIN001-266 + Crizotinib; first compound 0.253 µM): 0.748
relative viability (KIN001-266 + Crizotinib; first compound 0.8 µM): 0.693
relative viability (KIN001-266 + Crizotinib; first compound 2.53 µM): 0.753
relative viability (KIN001-266 + Crizotinib; first compound 8 µM): 0.585
relative viability (KIN001-266 + Linsitinib; first compound 0.08 µM): 0.51
relative viability (KIN001-266 + Linsitinib; first compound 0.253 µM): 0.435
relative viability (KIN001-266 + Linsitinib; first compound 0.8 µM): 0.58
relative viability (KIN001-266 + Linsitinib; first compound 2.53 µM): 0.584
relative viability (KIN001-266 + Linsitinib; first compound 8 µM): 0.641
relative viability (KIN001-266 + Alpelisib; first compound 0.08 µM): 1.09
relative viability (KIN001-266 + Alpelisib; first compound 0.253 µM): 0.652
relative viability (KIN001-266 + Alpelisib; first compound 0.8 µM): 0.754
relative viability (KIN001-266 + Alpelisib; first compound 2.53 µM): 0.635
relative viability (KIN001-266 + Alpelisib; first compound 8 µM): 0.755
relative viability (KIN001-266 + Vorinostat; first compound 0.08 µM): 0.932
relative viability (KIN001-266 + Vorinostat; first compound 0.253 µM): 0.966
relative viability (KIN001-266 + Vorinostat; first compound 0.8 µM): 0.971
relative viability (KIN001-266 + Vorinostat; first compound 8 µM): 1.01
relative viability (KIN001-266 + Olaparib; first compound 0.08 µM): 0.884
relative viability (KIN001-266 + Olaparib; first compound 0.253 µM): 0.791
relative viability (KIN001-266 + Olaparib; first compound 0.8 µM): 0.845
relative viability (KIN001-266 + Olaparib; first compound 2.53 µM): 0.853
relative viability (KIN001-266 + Olaparib; first compound 8 µM): 0.625
